Assay results: patent US6316411A, “Protection against ischemia and reperfusion injury” (University of Kentucky Research Foundation, priority 2000, dated 2001)

How the values were obtained:
mouse vas deferens = experiment: Mouse vas deferens (m.v.d.) contractility assay; details: FIG. 8; 6000 nM glibenclamide with 1000 nM compound-D
Experimental: Glibenclamide, a KATP channel blocker, blocked the inhibition of contraction of mouse vas deferens induced by compound-D SEQ ID NO:1. With reference to FIG. 8, the effect of administration of 1000 nM compound-D SEQ ID NO:1 alone (open bar) versus 1000 nM compound-D SEQ ID NO:1 with 6000 nM glibenclamide (hatched bar) on contractility of mouse vas deferens (m.v.d.) (n=6) is shown. […] (n=2).

isolated rat hearts = experiment: Isolated perfused rat heart (Langendorff), 20 min global ischemia and 120 min reperfusion after 24 h pretreatment; assay type: in vivo; details: FIG. 7, pretreated 24 h prior to ischemia, compound-D 2.0 mg/kg and/or naltrexone 3 mg/kg, 20 min ischemia, control about 27%
Experimental: Compound-D SEQ ID NO:1, at a dose of 2 mg/kg and solubilized as described above, was administered by tail vein injection into rats weighing between about 350-400 g (number of animals (n)=6). Control rats (n=6) were injected in the same manner with an equal volume of 0.9% NaCI. After 24 h, the hearts from both treated and control animals were excised and perfused in a modified Langendorff perfusion apparatus at 37° C. using oxygenated Krebs-Henseleit buffer as the perfusate, as known to one skilled in the art. Coronary perfusion pressure was maintained at 70 mm Hg by regulating coronary flow. All hearts were paced at […] (300 beats per minute, bpm) except during ischemia. A saline-filled balloon was inserted in the left ventricle to measure developed pressure (DP) and end-diastolic pressure (EDP) in mm Hg. After 15 min equilibration, both groups were subjected to 20 min zero-flow global ischemia, and then were reperfused for 120 min.
Left ventricles were isolated and divided into three segments along their short axis, stained with triphenyltetrazolium chloride, and stored in formalin. Infarct size was measured on digitized images and expressed as a per centage of myocardium. Data were expressed as mean plus or minus standard error of the mean (±SEM) and were analyze using a […] Student's t-Test. Confidence limits were established at 95%. […]

Compound | effect of glibenclamide on compound-D suppressed m.v.d. contractions (mouse vas deferens) | infarct size (isolated rat hearts)
COc1ccc(Cl)cc1C(=O)NCCc1ccc(S(=O)(=O)NC(=O)NC2CCCCC2)cc1 [Glibenclamide] | restored m.v.d. contractions | –
O=C1CC[C@@]2(O)[C@H]3Cc4ccc(O)c5c4[C@@]2(CCN3CC2CC2)[C@H]1O5 [naltrexone] | – | about 14.5%
